The results in this text go back to US4161520A, “Method of treating hypertension” (priority 1976, dated 1979).

A short description of data set [1]: Oral (per os) toxicity (LD50). It is filed as in vivo.
A further data set concerns DOCA-Na. rat. The experiment in a line: Comparative antihypertensive activity of polyether ionophores in the DOCA-Na rat (Example 3, Table III). It is filed as in vivo. Particulars: oral, five-day period, daily dose 1/100 of oral LD50 up to 10 mg/kg/day; for AHR (Subacute antihypertensive ratio): bromolasalocid as standard reference; for DURATION OF EFFECT: monitored until return to pre-drug levels. As for the experimental part: Using bromolasalocid as a standard for comparison, a number of polyether ionophores were tested for antihypertensive activity. The tests were conducted utilizing single oral dosages in the DOCA-Na. rat over a five-day period with dosing discontinued thereafter. Blood pressure monitoring was carried out for the five-day period and daily after cessation of dosing until blood pressure returned to pre-drug levels. […] The daily dosage was calculated by using one-one hundredth (1/100) of the oral (per os) toxicity (LD50) up to a maximum of 10 mg/kg/day. The antihypertensive activity expressed as AHR (Subacute antihypertensive ratio) was calculated using bromolasalocid as the standard reference (Table III).

Turning to `COC1CCC(OC2C(C)C(O)(C(C)C(=O)O)OC(CC3CC(OC)C(C)C4(O3)OC(C)(C3CCC(C5CCC(C6OC(C)(O)C(C)C(OC)C6C)O5)O3)C(OC)C4C)C2(C)OC)OC1C` (stereo not shown) [A-204], the LD50 in data set [1] was found to be 14 mg/kg. Further, in the data set with DOCA-Na. rat, the “ONSET TO MAX. RESPONSE” value was found to be 4 days, the “AHR (Subacute antihypertensive ratio)” value came out at 86.6 and the “DURATION OF EFFECT” value worked out at 5 days.

With `CNc1ccc2oc(C[C@H]3O[C@@]4(CC[C@H]3C)O[C@H]([C@H](C)C(=O)c3ccc[nH]3)[C@H](C)C[C@H]4C)nc2c1C(=O)O` [A-23187], the median lethal dose (LD50) in data set [1] was greater than 1000 mg/kg. Besides, in the data set with DOCA-Na. rat, the “ONSET TO MAX. RESPONSE” value was 4 days, the “AHR (Subacute antihypertensive ratio)” value came out at 0.93 and the “DURATION OF EFFECT” value stood at 10 days.

Regarding `CO[C@@H]1C[C@@H](C[C@H]2CC[C@H](C)[C@H]([C@@H](C)C(=O)O)O2)O[C@]2(O[C@](C)([C@H]3CC[C@@](C)([C@@H]4O[C@@H]([C@H]5O[C@@](O)(CO)[C@H](C)C[C@@H]5C)C[C@@H]4C)O3)C[C@H]2C)[C@@H]1C` [NIGERICIN, Nigericin], the LD50 in data set [1] amounted to 190 mg/kg. For the same molecule, in the data set with DOCA-Na. rat, the “ONSET TO MAX. RESPONSE” value was 3 days, the “AHR (Subacute antihypertensive ratio)” value is listed as 4.0 and the “DURATION OF EFFECT” value was determined as 9 days.

In turn, `CC/C(=C\C=C\[C@@H]1C=C[C@@H]2[C@@H](CC)CC[C@H]2[C@@H]1C(=O)c1ccc[nH]1)[C@@H]1O[C@@H]([C@@H](C)C(=O)O)CC[C@@H]1C` [X-14547A] returned an LD50 in data set [1] of 129 mg/kg. In the data set with DOCA-Na. rat, the “ONSET TO MAX. RESPONSE” value amounted to 2 days, the “AHR (Subacute antihypertensive ratio)” value was found to be 0.58 and the “DURATION OF EFFECT” value was 3 days.

Regarding BROMOISOLASALOCID, the LD50 in data set [1] is greater than 1000 mg/kg. Moreover, in the data set with DOCA-Na. rat, the “ONSET TO MAX. RESPONSE” value stood at 2 days, the “AHR (Subacute antihypertensive ratio)” value amounted to 0.85 and the “DURATION OF EFFECT” value was determined as 8 days.

Lysocellin returned an LD50 in data set [1] of 225 mg/kg. Moreover, in the data set on DOCA-Na. rat, the “ONSET TO MAX. RESPONSE” value is 2 days, the “AHR (Subacute antihypertensive ratio)” value came out at 2.08 and the “DURATION OF EFFECT” value was 3 days.

Regarding Monensin, the 50% lethal dose (LD50) in data set [1] was determined as 250 mg/kg. For the same molecule, in the data set on DOCA-Na. rat, the “ONSET TO MAX. RESPONSE” value turned out to be 2 days, the “AHR (Subacute antihypertensive ratio)” value was 7.2 and the “DURATION OF EFFECT” value was found to be 9 days.

As a reminder, the LD50 is the dose at which mortality reaches 50%.
